For this experiment, the target named is T1, telomerase in nuclear extracts from HeLa cells (Homo sapiens, UniProt O14746).
T1 construct: The activity of telomerase in nuclear extracts from HeLa cells; endogenous in cells; host or cells: HeLa-S3 nuclear extract (ATCC CCL-2.2), prepared according to Dignam
The experiment can be described thus: Telomerase test: activity of telomerase in nuclear extracts from HeLa cells (method of Morin). Format: biochemical. Conditions: concentration of inhibitor which inhibits the telomerase activity by 50%; HeLa nuclear extract, 120 minutes at 30° C., Phospho-Imager quantification. As for the experimental part:
The inhibiting effect of the carboxylic acid amides of general formula I on telomerase was investigated as follows: […]
1. Preparation of Nuclear Extracts from HeLa Cells:
Nuclear extracts were prepared according to Dignam (Dignam et al. in Nucleic Acids Res. 11, 1475-1489 (1983)). All the steps were carried out at 4° C., all the equipment and solutions were pre-cooled to 4° C. At least 1×10^9 HeLa-S3 cells growing in suspension culture (ATCC catalogue number CCL-2.2) were harvested by centrifuging for 5 minutes at 1000× g and washed once with PBS buffer ([…]; 2.7 mM KCl; 8.1 mM Na2HPO4; 1.5 mM KH2PO4). After the cell volume had been determined, the cells were suspended in 5 times the volume of hypotonic buffer (10 mM HEPES/KOH, pH 7.8; 10 mM KCl; 1.5 mM MgCl2) and then left for 10 minutes at 4° C. After centrifuging for 5 minutes at 1000× g the cell pellet was suspended in twice the volume of hypotonic buffer in the presence of 1 mM DTE and 1 mM PMSF and broken up with a Dounce homogeniser. The homogenised material was made isotonic with 0.1 volume of 10-fold saline buffer (300 mM HEPES/KOH, pH 7.8; 1.4 M KCl; 30 mM MgCl2). The cell nuclei were separated from the ingredients of the cytoplasm by centrifuging and then suspended in twice the volume of nuclear extraction buffer (20 mM HEPES/KOH, pH 7.9; 420 mM KCl; 1.5 mM MgCl2; 0.2 mM EDTA; 0.5 mM DTE; 25% glycerol). The nuclei were broken up using a Dounce homogeniser and incubated for 30 minutes at 4° C. with gentle stirring. Any insoluble ingredients were removed by centrifuging for 30 minutes at 10.000 rpm (SS-34 Rotor). Then the nuclear extract was dialysed for 4-5 hours against AM-100 buffer (20 mM tris/HCl, pH 7.9; 100 mM KCl; 0.1 mM EDTA; 0.5 mM DTE; 20% glycerol). The nuclear extracts obtained were frozen in liquid nitrogen and stored at −80° C.
The activity of telomerase in nuclear extracts from HeLa cells was determined using the method described by Morin (Morin in Cell 59, 521-529 (1989)). […] If the inhibition constant of potential telomerase inhibitors was to be determined, these were also added to the telomerase reaction in a concentration range of from 1 nM to 100 μM.
The reaction was then stopped by the addition of 50 μl of RNase stop buffer (10 mM tris/HCL, pH 8.0; 20 mM EDTA; 0.1 mg/ml of RNase A 100 U/ml of RNase T1; 1000 cpm of an α-^32P-dGTP labelled, 430 bp DNA fragment) and incubation was continued for a further 15 minutes at 37° C. Proteins present in the reaction mixture were cleaved by the addition of 50 μl of proteinase K buffer (10 mM tris/HCL, pH 8.0; 0.5% SDS; 0.3 mg/ml of proteinase K) and subsequent incubation for 15 min at 37° C. The DNA was purified by extracting twice with phenol-chloroform and precipitated by adding 2.4 M ammonium acetate; 3 μg tRNA and 750 μl ethanol. Then the precipitated DNA was washed with 500 μl of 70% ethanol, dried at ambient temperature, taken up in 4 μl of formamide probe buffer (80% (V/V) formamide; 50 mM of tris-borate, pH 8.3; 1 mM EDTA; 0.1 (w/v) of xylene cyanol; 0.1% (w/v) bromophenol blue) and separated by electrophoresis on a sequence gel (8% polyacrylamide, 7 M urea, 1× TBE buffer). The DNA synthesised by telomerase in the presence or absence of potential inhibitors was identified and quantified by Phospho-Imager Analysis (Molecular Dynamics) and in this way the concentration of inhibitor which inhibits the telomerase activity by 50% (IC50) was determined.

T1 sequence (O14746 whole entry): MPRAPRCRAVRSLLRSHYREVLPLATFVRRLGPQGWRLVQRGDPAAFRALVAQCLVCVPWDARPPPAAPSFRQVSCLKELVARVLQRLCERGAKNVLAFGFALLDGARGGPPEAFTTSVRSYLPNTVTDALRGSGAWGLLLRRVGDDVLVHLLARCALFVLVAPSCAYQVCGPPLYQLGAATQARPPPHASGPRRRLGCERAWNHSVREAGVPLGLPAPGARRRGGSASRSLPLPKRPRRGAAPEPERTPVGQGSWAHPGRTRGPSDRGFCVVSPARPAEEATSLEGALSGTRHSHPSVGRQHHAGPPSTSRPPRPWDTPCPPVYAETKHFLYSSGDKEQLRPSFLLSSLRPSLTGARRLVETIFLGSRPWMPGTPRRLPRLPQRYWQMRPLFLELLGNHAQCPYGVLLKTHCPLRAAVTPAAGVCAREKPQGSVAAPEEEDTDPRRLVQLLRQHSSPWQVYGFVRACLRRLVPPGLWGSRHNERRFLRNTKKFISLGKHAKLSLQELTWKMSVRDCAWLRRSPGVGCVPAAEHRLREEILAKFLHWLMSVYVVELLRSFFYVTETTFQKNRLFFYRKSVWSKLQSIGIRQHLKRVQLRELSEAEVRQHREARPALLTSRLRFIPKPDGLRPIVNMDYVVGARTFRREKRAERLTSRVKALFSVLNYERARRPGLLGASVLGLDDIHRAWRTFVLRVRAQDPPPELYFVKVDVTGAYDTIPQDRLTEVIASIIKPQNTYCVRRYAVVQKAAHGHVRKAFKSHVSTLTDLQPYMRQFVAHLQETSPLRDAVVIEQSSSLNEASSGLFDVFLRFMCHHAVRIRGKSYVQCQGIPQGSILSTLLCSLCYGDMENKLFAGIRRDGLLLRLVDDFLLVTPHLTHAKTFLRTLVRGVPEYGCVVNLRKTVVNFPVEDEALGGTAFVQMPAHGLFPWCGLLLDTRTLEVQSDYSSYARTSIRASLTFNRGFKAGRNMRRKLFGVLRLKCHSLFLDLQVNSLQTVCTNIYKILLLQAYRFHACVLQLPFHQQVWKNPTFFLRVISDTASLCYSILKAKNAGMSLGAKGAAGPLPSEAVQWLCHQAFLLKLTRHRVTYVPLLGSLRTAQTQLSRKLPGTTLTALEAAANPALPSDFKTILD
T1 sequence (O60832 whole entry partner): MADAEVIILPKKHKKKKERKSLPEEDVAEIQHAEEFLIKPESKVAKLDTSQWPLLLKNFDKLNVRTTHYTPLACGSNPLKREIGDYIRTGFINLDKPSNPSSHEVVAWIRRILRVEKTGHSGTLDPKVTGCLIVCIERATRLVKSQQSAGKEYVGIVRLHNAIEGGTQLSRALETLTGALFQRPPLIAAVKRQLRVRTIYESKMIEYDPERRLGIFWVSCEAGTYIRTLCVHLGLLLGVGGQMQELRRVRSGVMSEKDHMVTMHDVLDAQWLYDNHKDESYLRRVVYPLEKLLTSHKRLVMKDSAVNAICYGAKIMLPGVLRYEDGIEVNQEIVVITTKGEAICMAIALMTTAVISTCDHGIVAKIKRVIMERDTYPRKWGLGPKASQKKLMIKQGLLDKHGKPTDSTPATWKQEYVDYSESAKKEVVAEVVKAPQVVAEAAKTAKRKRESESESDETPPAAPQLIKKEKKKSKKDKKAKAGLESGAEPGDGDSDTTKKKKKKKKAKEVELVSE
T1 sequence (Q9NPE3 whole entry partner): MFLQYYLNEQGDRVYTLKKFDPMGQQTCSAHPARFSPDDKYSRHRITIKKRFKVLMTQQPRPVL
T1 sequence (Q9NX24 whole entry partner): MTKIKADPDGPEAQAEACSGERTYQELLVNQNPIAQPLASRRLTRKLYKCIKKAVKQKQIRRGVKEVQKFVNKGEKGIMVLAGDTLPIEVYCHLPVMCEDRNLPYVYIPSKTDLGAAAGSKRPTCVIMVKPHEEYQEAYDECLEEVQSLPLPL
T1 sequence (Q9NY12 whole entry partner): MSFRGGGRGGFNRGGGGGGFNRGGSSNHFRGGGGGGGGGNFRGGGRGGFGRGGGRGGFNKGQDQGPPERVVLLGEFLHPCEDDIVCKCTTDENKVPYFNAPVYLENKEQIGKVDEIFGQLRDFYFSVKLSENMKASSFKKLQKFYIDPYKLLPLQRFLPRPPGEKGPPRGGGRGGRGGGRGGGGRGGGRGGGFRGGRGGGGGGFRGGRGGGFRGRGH
T1 sequence (Q9BUR4 whole entry partner): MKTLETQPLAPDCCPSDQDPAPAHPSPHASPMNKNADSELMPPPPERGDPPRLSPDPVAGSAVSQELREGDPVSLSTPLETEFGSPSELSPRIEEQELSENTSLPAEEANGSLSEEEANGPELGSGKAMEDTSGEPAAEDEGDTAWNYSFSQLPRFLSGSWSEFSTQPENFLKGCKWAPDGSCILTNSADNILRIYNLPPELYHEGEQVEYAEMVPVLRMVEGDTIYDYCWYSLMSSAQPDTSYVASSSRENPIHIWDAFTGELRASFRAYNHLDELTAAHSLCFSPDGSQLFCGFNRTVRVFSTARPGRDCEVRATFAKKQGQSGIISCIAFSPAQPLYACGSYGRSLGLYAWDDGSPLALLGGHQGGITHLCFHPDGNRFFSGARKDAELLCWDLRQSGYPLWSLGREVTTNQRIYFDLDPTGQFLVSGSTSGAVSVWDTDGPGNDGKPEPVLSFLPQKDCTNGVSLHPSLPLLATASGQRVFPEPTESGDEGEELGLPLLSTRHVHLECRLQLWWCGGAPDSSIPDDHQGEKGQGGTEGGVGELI

For `C/C(=C\C(=O)Nc1ccccc1C(=O)O)c1ccc(Cl)c(Cl)c1` [Example 10, trans-3-(3,4-dichlorophenyl)-but-2-enoic acid-N-(2-carboxy-phenyl)-amide], the half-inhibitory concentration (IC50) was found to be 5 µM.
Molecule `COc1cc(C(=O)O)c(NC(=O)/C=C(\C)c2ccc(Cl)c(Cl)c2)cc1C` [Example 17, trans-3-(3,4-dichlorophenyl)-but-2-enoic acid-N-(2-carboxy-4-methoxy-5-methyl-phenyl)-amide] gave a half-inhibitory concentration (IC50) of 1 µM.
Consider `C/C(=C\C(=O)Nc1ccccc1C(=O)O)c1ccc2ccccc2c1` [Example 18, trans-3-(naphth-2-yl)-but-2-enoic acid-N-(2-carboxy-phenyl)-amide], for which 0.04 µM corresponded to half-maximal inhibition (IC50).
In the case of `COc1cc(NC(=O)/C=C(\C)c2ccc3ccccc3c2)c(C(=O)O)cc1OC` [Example 28, trans-3-(naphth-2-yl)-but-2-enoic acid-N-(2-carboxy-4,5-dimethoxy-phenyl)-amide], the IC50 was found to be 0.035 µM.
In the case of `C/C(=C\C(=O)Nc1cc(Cl)ccc1C(=O)O)c1ccc2ccccc2c1` [Example 29, trans-3-(naphth-2-yl)-but-2-enoic acid-N-(2-carboxy-5-chloro-phenyl)-amide], the half-maximal inhibitory concentration (IC50) was 0.55 µM.
The molecule `C/C(=C\C(=O)Nc1ccc(F)cc1C(=O)O)c1ccc2ccccc2c1` [Example 31, trans-3-(naphth-2-yl)-but-2-enoic acid-N-(2-carboxy-4-fluoro-phenyl)-amide] gave an IC50 of 0.1 µM.

As usually defined, the IC50 is the concentration that inhibits the measured activity by half. Higher therefore signals weaker potency in that assay.
